Reference: publication PMC12263422, “Cryo-EM structure of the human THIK-1 K2P K^+ channel reveals a lower Y gate regulated by lipids and anesthetics” (Nature Structural & Molecular Biology, 2025)
Where “and” joins values, the source holds several entries; their conditions need not be identical. Equal entries are not always repeated. Where two headings read alike, the source gives them in different places.

Molecular target: T1, Human K2P13.1 THIK-1 (WT) (Homo sapiens, UniProt Q9HB14)
T1 construct: expressed in transfected cells; host or cells: Xenopus oocytes (mRNA injection)
T1 sequence (Q9HB14 1-408): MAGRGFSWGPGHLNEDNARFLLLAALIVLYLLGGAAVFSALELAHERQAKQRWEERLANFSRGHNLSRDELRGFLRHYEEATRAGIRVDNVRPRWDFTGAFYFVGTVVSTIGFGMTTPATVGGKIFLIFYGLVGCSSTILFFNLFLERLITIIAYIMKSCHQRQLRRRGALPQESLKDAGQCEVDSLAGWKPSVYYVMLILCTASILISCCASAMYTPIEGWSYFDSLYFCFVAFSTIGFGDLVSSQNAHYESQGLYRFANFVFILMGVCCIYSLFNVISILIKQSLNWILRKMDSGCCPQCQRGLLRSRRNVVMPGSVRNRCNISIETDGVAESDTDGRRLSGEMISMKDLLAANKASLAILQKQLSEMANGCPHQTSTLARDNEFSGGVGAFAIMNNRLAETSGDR
Assay: Macroscopic inside-out excised patch recordings from Xenopus oocytes expressing WT THIK-1; compounds applied to the intracellular side
Assay type: cell-based
Settings: for inhibition at 152 µM: halothane 0.152 mM; for inhibition at 304 µM: halothane 0.304 mM; for inhibition at 1520 µM: halothane 1.52 mM; for inhibition at 3040 µM: halothane 3.04 mM; for inhibition at 15200 µM: halothane 15.2 mM
Source text: Human K2P13.1 THIK-1 (GenBank accession number: NM_022054) and human K2P12.1 THIK-2 (NM_022055.1) were used in this study. For functional expression studies, the respective K^+ channel subtype coding sequences were subcloned into the oocyte expression vector pSGEM or the dual-purpose expression vector pFAW[41] and verified by sequencing. All mutant channels were obtained by site-directed mutagenesis and verified by sequencing. To increase surface expression and macroscopic currents, measurements of THIK-2 channels used a mutated ER retention motif, (R11A R12A R14A R15A R16A; THIK-2*)[20]. Vector DNA was linearized with NheI or MluI, and mRNA was synthesized in vitro using the SP6 or T7 AmpliCap Max High Yield Message Maker Kit (Cellscript, USA) or HiScribe T7 ARCA mRNA Kit (New England Biolabs).
Two-electrode voltage–clamp (TEVC) studies were performed in Xenopus oocytes. All animal use conformed to the Guide for the Care and Use of Laboratory Animals (NIH Publication 85–23), and all experiments using Xenopus toads were approved by the local ethics panels. Oocytes were stored at 17 °C in ND96 recording solution composed of (in mM): 96 NaCl, 2 KCl, 1.8 CaCl2, 1 MgCl2, 5 HEPES (pH 7.5 adjusted with NaOH and HCl), supplemented with Na-pyruvate (275 mg L^–1), theophylline (90 mg L^–1) and gentamicin (50 mg L^–1). Oocytes were injected with 1 ng mRNA for WT or mutant channels, and were incubated for 24–48 h at 17 °C. Two-electrode voltage clamp recordings were then performed as previously described[42],[43]. For macroscopic patch–clamp measurements, oocytes were obtained as described above incubated at 17 °C in a solution containing (mM): 54 NaCl, 30 KCl, 2.4 NaHCO3, 0.82 MgSO4 ×7 H2O, 0.41 CaCl2, 0.33 Ca(NO3)2 ×4 H2O and 7.5 TRIS (pH 7.4 adjusted with NaOH and HCl) for 1–4 days before use. Excised patch recordings in inside-out configuration conditions were performed at room temperature. Patch pipettes were made from thick-walled borosilicate glass GB 200TF-8P (Science Products), had resistances of 0.2–0.5 MΩ (tip diameter, 10–25 µm) and filled with a pipette solution (in mM): 120 KCl, 10 HEPES and 3.6 CaCl2 (pH 7.4 adjusted with KOH and HCl). Intracellular bath solutions and compounds were applied to the cytoplasmic side of excised patches for the various K^+ channels through a gravity flow multi-barrel pipette system. The intracellular solution had the following composition (in mM): 120 KCl, 10 HEPES, 2 EGTA and 1 pyrophosphate (pH adjusted with KOH and HCl). Currents were recorded with an EPC10 amplifier (HEKA Electronics) and sampled at 10 kHz or higher, with filtering set to 3 kHz (–3 dB) or higher, as appropriate for sampling rate. For measurements of GPCR activation, whole-cell currents were recorded for THIK-1 in transiently transfected HEK-293 cells. Cells were stimulated by a ramp protocol between −100 and +60 mV (holding potential, −80 mV). The pipette solution was composed of (in mM): 140 KCl, 2 MgCl2, 1 CaCl2, 2.5 EGTA and 10 HEPES (pH 7.3 adjusted with KOH and HCl). The extracellular bath solution had the following composition (in mM): 135 NaCl, 5 KCl, 2 MgCl2, 2 CaCl2, 10 glucose and 10 HEPES pH (pH 7.3 adjusted with NaOH and HCl). Oxotremorine M (Oxo-M) was added to extracellular bath solution to obtain the final concentration. Single-channel currents were recorded with an Axopatch 200B amplifier through a Digidata 1440A digitizer (Molecular Devices). Data were filtered at 2 kHz and recorded at a 200-kHz sampling rate with the program Clampex (Molecular Devices). Pipette solution and bath solution for cell-attached recordings contained (in mM): 140 KCl, 2 MgCl2, 1 CaCl2 and 10 HEPES (pH 7.4 adjusted with KOH and HCl). For inside-out recordings, the bath solution contained (in mM): 140 KCl, 2 MgCl2, 1 CaCl2 and 10 HEPES (pH 7.2 adjusted with KOH and HCl). All experiments were conducted at room temperature. […]

[1] = WT (unstimulated), individual recordings
[2] = WT, PIP2, individual recordings
[3] = WT, oleoyl-CoA, individual recordings
[4] = THIK-1 WT (TPenA), presence of 0.5 mM TPenA
[5] = THIK-1 WT (oleoyl-CoA), 5.0 µM oleoyl-CoA

With `CCCCC[N+](CCCCC)(CCCCC)CCCCC` [TPenA, tetrapentylammonium] the “block of initial currents” value (0.5 mM TPenA, WT) was ~ 80%, the Normalized currents (THIK-1 WT (unstimulated), 0.01 µM TPenA) was 1.00 and the Normalized currents (THIK-1 WT (unstimulated), 0.1 µM TPenA) was 0.97. The Normalized currents (THIK-1 WT (unstimulated), 1 µM TPenA) was 0.94, the Normalized currents (THIK-1 WT (unstimulated), 10 µM TPenA) was 0.88 and the Normalized currents (THIK-1 WT (unstimulated), 15.6 µM TPenA) was 0.89. The Normalized currents (THIK-1 WT (unstimulated), 62.5 µM TPenA) was 0.75, the Normalized currents (THIK-1 WT (unstimulated), 100 µM TPenA) was 0.71 and the Normalized currents (THIK-1 WT (unstimulated), 250 µM TPenA) was 0.49. It also gave a Normalized currents (THIK-1 WT (unstimulated), 1000 µM TPenA) of 0.21, a Normalized currents (THIK-1 WT (unstimulated), 4000 µM TPenA) of 0.09 and a Normalized currents (THIK-1 WT (unstimulated), 5000 µM TPenA) of 0.09. It also gave a Normalized currents (TPenA 0.01 µM, THIK-1 WT (oleoyl-CoA, 5 µM)) of 1, a Normalized currents (TPenA 0.01 µM, THIK-1 WT (unstimulated)) of 1.00 and a Normalized currents (TPenA 0.1 µM, THIK-1 WT (PIP2)) of 1. For the same molecule, the Normalized currents (TPenA 0.1 µM, THIK-1 WT (oleoyl-CoA, 5 µM)) was 0.87, the Normalized currents (TPenA 0.1 µM, THIK-1 WT (unstimulated)) was 0.97 and the Normalized currents (TPenA 1 µM, THIK-1 WT (PIP2)) was 0.86. The Normalized currents (TPenA 1 µM, THIK-1 WT (oleoyl-CoA, 5 µM)) was 0.81, the Normalized currents (TPenA 1 µM, THIK-1 WT (unstimulated)) was 0.94 and the Normalized currents (TPenA 4 µM, THIK-1 WT (PIP2)) was 0.54. For the same molecule, the Normalized currents (TPenA 4 µM, THIK-1 WT (oleoyl-CoA, 5 µM)) was 0.48, the Normalized currents (TPenA 10 µM, THIK-1 WT (unstimulated)) was 0.88 and the Normalized currents (TPenA 15.6 µM, THIK-1 WT (PIP2)) was 0.26. For the same molecule, the Normalized currents (TPenA 15.6 µM, THIK-1 WT (oleoyl-CoA, 5 µM)) was 0.22, the Normalized currents (TPenA 15.6 µM, THIK-1 WT (unstimulated)) was 0.89 and the Normalized currents (TPenA 62.5 µM, THIK-1 WT (PIP2)) was 0.1. For the same molecule, the Normalized currents (TPenA 62.5 µM, THIK-1 WT (oleoyl-CoA, 5 µM)) was 0.09, the Normalized currents (TPenA 62.5 µM, THIK-1 WT (unstimulated)) was 0.75 and the Normalized currents (TPenA 100 µM, THIK-1 WT (unstimulated)) was 0.71. The Normalized currents (TPenA 250 µM, THIK-1 WT (PIP2)) was 0.03, the Normalized currents (TPenA 250 µM, THIK-1 WT (oleoyl-CoA, 5 µM)) was 0.04 and the Normalized currents (TPenA 250 µM, THIK-1 WT (unstimulated)) was 0.49. The Normalized currents (TPenA 1000 µM, THIK-1 WT (PIP2)) was 0.02, the Normalized currents (TPenA 1000 µM, THIK-1 WT (oleoyl-CoA, 5 µM)) was 0.02 and the Normalized currents (TPenA 1000 µM, THIK-1 WT (unstimulated)) was 0.21. For the same molecule, the Normalized currents (TPenA 4000 µM, THIK-1 WT (PIP2)) was 0.01, the Normalized currents (TPenA 4000 µM, THIK-1 WT (oleoyl-CoA, 5 µM)) was 0.02 and the Normalized currents (TPenA 4000 µM, THIK-1 WT (unstimulated)) was 0.09. The Normalized currents (TPenA 5000 µM, THIK-1 WT (unstimulated)) was 0.09, the IC50 (TPenA IC50, THIK-1 WT, individual recordings) was 228 µM and 219 µM and 204 µM (2×) and 231 µM and 268 µM and 259 µM and 120 µM and 223 µM and 194 µM and 240 µM and 308 µM and the IC50 (TPenA IC50, THIK-1 WT, mean) was 225 µM. For the same molecule, the IC50 (TPenA IC50, intracellular application to excised patches, WT unstimulated) was 225 ± 13 µM, the “τ of 1 mM TPenA block” value [1] was 14.000 s and 10.890 s and 8.250 s and 24.220 s and 9.660 s and 10.730 s and 11.070 s and 13.110 s and 12.070 s and 8.080 s and 8.510 s and the “τ of 1 mM TPenA release” value [1] was 76.730 s and 96.620 s and 52.570 s and 76.880 s and 103.780 s and 38.820 s and 101.050 s and 68.790 s and 74.350 s and 174.000 s and 73.800 s. The “τ of 1 mM TPenA block” value (WT (unstimulated), mean) was 11.87 s, the “τ of 1 mM TPenA release” value (WT (unstimulated), mean) was 85.22 s and the “τblock (kinetics of TPenA block)” value (WT unstimulated) was 12 ± 1 s. For the same molecule, the “τrelease (kinetics of TPenA release)” value (WT unstimulated) was 85 ± 11 s, the “τ of 1 mM TPenA block” value [2] was 0.324 s and 0.375 s and 0.323 s and 0.215 s and 0.293 s and the “τ of 1 mM TPenA release” value [2] was 29.360 s and 29.550 s and 28.630 s and 28.550 s and 38.470 s and 25.420 s. The τblock (WT, PIP2 activated) was 0.31 ± 0.02 s, the τrelease (WT, PIP2 activated) was 30 ± 2 s and the “τ of 1 mM TPenA block” value (WT, PIP2 activated, mean) was 0.31 s. The “τ of 1 mM TPenA release” value (WT, PIP2 activated, mean) was 30.00 s, the τblock (WT, oleoyl-CoA activated) was 0.5 ± 0.1 s and the τrelease (WT, oleoyl-CoA activated) was 11 ± 1 s. For the same molecule, the “τ of 1 mM TPenA block” value (WT, oleoyl-CoA activated, mean) was 0.53 s, the “τ of 1 mM TPenA release” value (WT, oleoyl-CoA activated, mean) was 10.85 s and the “τ of 1 mM TPenA block” value [3] was 0.330 s and 0.560 s and 0.270 s and 0.340 s and 0.440 s and 0.930 s and 0.380 s and 0.720 s and 0.750 s and 0.360 s. For the same molecule, the “τ of 1 mM TPenA release” value [3] was 7.190 s and 6.440 s and 12.640 s and 12.180 s and 15.140 s and 8.860 s and 13.480 s, the inhibition at 15.6 µM (read-out: inhibition with 15.6 µM TPenA, WT channel in PIP2) was 74 ± 1% and the inhibition at 15.6 µM (read-out: inhibition with 15.6 µM TPenA, WT channel in oleoyl-CoA) was 78 ± 1%. For the same molecule, the inhibition at 15.6 µM (read-out: inhibition with 15.6 µM TPenA, WT channel, unstimulated) was 11 ± 1%.

`FC(F)(F)C(Cl)Br` (stereo not drawn) [halothane] was tested, and the inhibition at 152 µM (THIK-1 WT) was 11%, the inhibition at 152 µM [4] was 6.45% and the inhibition at 304 µM (THIK-1 WT) was 18.8%. For the same molecule, the inhibition at 304 µM [4] was 13%, the inhibition at 304 µM [5] was 4.78% and the inhibition at 1520 µM (THIK-1 WT) was 41.4%. It also gave an inhibition at 1520 µM [4] of 23.2%, an inhibition at 1520 µM [5] of 19.9% and an inhibition at 3040 µM (THIK-1 WT) of 57.6%. The inhibition at 3040 µM [4] was 30%, the inhibition at 3040 µM [5] was 38.9% and the inhibition at 15200 µM (THIK-1 WT) was 83.9%. For the same molecule, the inhibition at 15200 µM [4] was 57.9% and the inhibition at 15200 µM [5] was 69.3%.
